# Source: the CATMoS acute toxicity set (Mansouri et al. 2021)
# Assay: GHS categories as the set defines them, by LD50: 1 up to 5, 2 up to 50, 3 up to 300, 4 up to 2000, 5 above 2000 mg/kg
# Conditions: rat; in vivo; po
row,Compound,GHS category
1,CCCOc1ccc(Cl)c2c(=O)c3ccccc3sc12,5
2,O=C(O)CN(CCN(CC(=O)O)CC(=O)O)CCN(CC(=O)O)CC(=O)O (racemic),5
3,O=C(O)CNC(c1ccccc1)c1ccc(F)cc1 (configuration not stated),4
4,CCC(C)C(NC(=O)C(Cc1cnc[nH]1)NC(=O)C(CCSC)NC(=O)C(CS)NC(=O)C(NC(=O)CNC(=O)CNC(=O)C(CC(N)=O)NC(=O)C(CC(C)C)NC(=O)C(CS)NC(=O)C(Cc1ccc(O)cc1)NC(=O)CNC(=O)C(CC(=O)O)NC(=O)C(Cc1ccc(O)cc1)NC(=O)C(CO)NC(=O)C(CO)NC(=O)C1CCCN1C(=O)C(CS)NC(=O)CNC(=O)C1CCCN1C(=O)C(Cc1ccc(O)cc1)NC(=O)C(CO)NC(=O)C(N)CC(N)=O)C(C)C)C(=O)NC(CCC(=O)O)C(=O)NC(CO)C(=O)NC(CC(C)C)C(=O)NC(CC(=O)O)C(=O)NC(CO)C(=O)NC(Cc1ccc(O)cc1)C(=O)NC(C(=O)NC(CS)C(=O)NC(CC(N)=O)C(=O)NC(CS)C(=O)NC(C(=O)NC(C(=O)NCC(=O)NC(Cc1ccc(O)cc1)C(=O)NC(CO)C(=O)NCC(=O)NC(CC(=O)O)C(=O)NC(CCCNC(=N)N)C(=O)NC(CS)C(=O)NC(CCC(N)=O)C(=O)NC(C(=O)NC(CCCNC(=N)N)C(=O)NC(CC(=O)O)C(=O)NC(CC(C)C)C(=O)NC(CCCNC(=N)N)C(=O)NC(Cc1c[nH]c2ccccc12)C(=O)NC(Cc1c[nH]c2ccccc12)C(=O)NC(CCC(=O)O)C(=O)NC(CC(C)C)C(=O)NC(CCCNC(=N)N)C(=O)O)C(C)O)C(C)CC)C(C)C)C(C)O (configuration not stated),5
5,FC(Cl)C(F)(F)C(F)(F)Cl (configuration not stated),5
6,CCOC(=O)[C@H](CCc1ccccc1)N[C@@H](C)C(=O)N1CC2(C[C@H]1C(=O)O)SCCS2,5
7,COc1ccc2cccc(CC#N)c2c1,5
8,Cc1ccc2ncc(C(=O)NC3CCCC3)c(=O)n2c1,3
9,O=C(OCc1cncs1)Oc1ccc([N+](=O)[O-])cc1,5
10,CCOP(OCC)c1ccccc1,5
11,CCCN(CCC)C(=O)C(CCC(=O)OCCOC(=O)COC(=O)Cc1c(C)n(C(=O)c2ccc(Cl)cc2)c2ccc(OC)cc12)NC(=O)c1ccccc1 (configuration not stated),4
12,CN1CCN(C2=NS(=O)(=O)c3cc(Cl)ccc3N2)CC1,5
13,O=C(Cc1ccccc1)Cc1ccccc1,5
14,CCCCCCCCCCCCCCCCCCOCCC[N+](C)(C)C,4
15,COC(C)CCO (configuration not stated),5
16,C/C=C(\C)C(=O)OCC,5
17,CC#CCC(C)[C@H](O)/C=C/C1[C@H](O)C[C@@H]2C/C(=C\CCCC(=O)O)C[C@H]12 (some centres not stated),3
18,Cc1ccc(Cl)cc1N=Nc1c(O)c(C(=O)Nc2cc(C)c(NC(=O)c3cc4ccccc4c(N=Nc4cc(Cl)ccc4C)c3O)cc2C)cc2ccccc12,5
19,C=C(C#N)C(=O)OCCOC,5
20,FC(F)(Cl)Cl,4
21,COC(=O)c1ccc(C(F)(F)F)nc1S(=O)(=O)NC(=O)Nc1nc(OC)cc(OC)n1,5
22,CC1(C)S[C@@H]2[C@H](NC(=O)[C@H](N)c3ccccc3)C(=O)N2[C@H]1C(=O)OCOC(=O)[C@@H]1N2C(=O)C[C@H]2S(=O)(=O)C1(C)C,5
23,CCCCCCCC/C=C\CCCCCCCC(=O)NCC(C)O (configuration not stated),5

row,Compound,GHS category
1,B12B3B4B1C234,5
2,CSc1nc2cc(Cl)ccc2o1,5
3,CCCc1c(Cc2ccc(-c3ccccc3-c3nn[nH]n3)cc2)c(N)nc2ncnn12,4
4,CCOC(=O)C(F)(F)F,5
5,Cc1cc(S(=O)(=O)O)c(/N=N/c2c(O)c(C(=O)O)cc3ccccc23)cc1Cl,5
6,O=C1NC(c2ccccc2)=C2C(=O)NC(c3ccccc3)=C12,5
7,CCC(C)Cl (configuration not stated),5
8,CC(C)COC(=O)Nc1nc(N2CC=CCC2)cc2nc(=O)on12,5
9,O=[N+]([O-])c1cccc(C=NOCc2cccc([N+](=O)[O-])c2)c1,4
10,Cc1cccc(N(C)C(=S)Oc2ccc3c(c2)C2CCC3C2)c1 (configuration not stated),4
11,O=C1NC(=O)c2ccc3c4ccc5c6c(ccc(c7ccc1c2c73)c64)C(=O)NC5=O,5
12,Brc1ccc(CNC2=NCCS2)cc1,3
13,NC(N)=Nc1nc2c(s1)CN(C(=O)NC1CC1)CC2,4
14,COC(=O)[C@H]1[C@H]2C[C@@H]3c4[nH]c5cc(OC)ccc5c4CCN3C[C@H]2C[C@@H](OC(=O)/C=C/c2ccc(O)c(OC)c2)[C@@H]1OC,5
15,CC(C)C1=CC23CCC4C(C)(C(=O)N(C)C)CCCC4(C)C2CC1C1C(=O)OC(=O)C13 (configuration not stated),5
16,CCCCCCCCCCCC(=O)N(CCCC)CCCC,5
17,CCOC(=O)C(F)F,5
18,CCN(C(=O)CCCCSc1nnnn1C)C1CCCCC1,4
19,CO/N=C(\C(=O)N[C@@H]1C(=O)N2C(C(=O)O)=CCS[C@H]12)c1csc(N)n1,5
20,CCn1cc(C(=O)O)c(=O)c2cc(F)c(-n3cccc3)cc21,5
21,CCC(=O)C=CC1C(C)=CCCC1(C)C (configuration not stated),5
22,C#CCOc1ccc(CCNC(=O)C(OCC#C)c2ccc(Cl)cc2)cc1OC (configuration not stated),5
23,O=C1c2ccc3c4ccc5c6c(ccc(c7ccc(c2c37)C(=O)N1CCc1ccccc1)c64)C(=O)N(CCc1ccccc1)C5=O,5

row,Compound,GHS category
1,CCCc1c(Cc2ccc(-c3ccccc3C(N)=O)cc2)c(=O)nc2[nH]ncn12,4
2,CCOC(C)(C)CC,5
3,CCCCCCCCCC(=O)Oc1ccc(C(=O)O)cc1,5
4,Nc1ccc(C(=O)NCCN2CCN(c3ccccn3)CC2)cc1,5
5,CCOC(=O)c1c[nH]c2c(F)c(F)c(F)cc2c1=O,5
6,CC(C)C(N)C(=O)OCc1ccccc1 (configuration not stated),5
7,CCCCOC(=O)Nc1nc(N2CC=CCC2)cc2nc(=O)on12,5
8,NC(=O)c1ccc(NC(=O)c2ccc(N)cc2)cc1,5
9,Cc1nsc(NC(=O)c2ccccc2)c1C(=O)Nc1ccc(Cl)cc1,5
10,CC(CC(C)(C)C)CC(C)(C)C,5
11,CC(C)=CCC/C(C)=C/CC/C(C)=C/CCC(=O)OC/C=C(\C)CCC=C(C)C,5
12,CC[C@H](C)[C@H](NC(=O)[C@H](CCC(=O)O)NC(=O)[C@H](CO)NC(=O)[C@@H](NC(=O)[C@@H](N)CO)C(C)C)C(=O)N[C@@H](CCC(N)=O)C(=O)N[C@@H](CC(C)C)C(=O)N[C@@H](CCSC)C(=O)N[C@@H](Cc1cnc[nH]1)C(=O)N[C@@H](CC(N)=O)C(=O)N[C@@H](CC(C)C)C(=O)NCC(=O)N[C@@H](CCCCN)C(=O)N[C@@H](Cc1cnc[nH]1)C(=O)N[C@@H](CC(C)C)C(=O)N[C@@H](CC(N)=O)C(=O)N[C@@H](CO)C(=O)N[C@@H](CCSC)C(=O)N[C@@H](CCC(=O)O)C(=O)N[C@@H](CCCNC(=N)N)C(=O)N[C@H](C(=O)N[C@@H](CCC(=O)O)C(=O)N[C@@H](Cc1c[nH]c2ccccc12)C(=O)N[C@@H](CC(C)C)C(=O)N[C@@H](CCCNC(=N)N)C(=O)N[C@@H](CCCCN)C(=O)N[C@@H](CCCCN)C(=O)N[C@@H](CC(C)C)C(=O)N[C@@H](CCC(N)=O)C(=O)N[C@@H](CC(=O)O)C(=O)N[C@H](C(=O)N[C@@H](Cc1cnc[nH]1)C(=O)N[C@@H](CC(N)=O)C(=O)N[C@@H](Cc1ccccc1)C(=O)O)C(C)C)C(C)C,2
13,O=C1CCc2c(cccc2OCCCN2CCC(Cc3ccccc3)CC2)N1,4
14,Cc1ccc(C2=NCOCS2)cc1,4
15,CNC(=O)C(=NNc1cccc(Cl)c1Cl)C(C)=O,5
16,O=C(Nc1ccc(F)cc1F)c1cccnc1Oc1cccc(C(F)(F)F)c1,5
17,Cc1cccc(C)c1NC(=O)C1CCCCN1C (configuration not stated),5
18,CCCCOC(=O)C1(O)c2ccccc2-c2ccccc21,5
19,C[C@@H]1CC(C)(C)O[C@](Cn2cncn2)(c2cc3ccccc3o2)O1,4
20,O=C1c2ccc(N(c3ccc(Cl)cc3)c3ccc(Cl)cc3)cc2C(=O)N1Cc1cccnc1,5
21,O=C(CC1Sc2ccccc2NC1=O)Nc1cccc(Cl)c1 (configuration not stated),5
22,CC1CC(c2ccccc2)C(c2ccccc2)C(=O)O1 (configuration not stated),4
23,NC(=O)OC[C@@H]1[C@H](NC(=O)/C(=N\OCC(=O)O)c2csc(N)n2)C(=O)N1S(=O)(=O)O,5

row,Compound,GHS category
1,CC1CC(OC(=O)COc2ccc(Cl)cc2)CC(C)(C)C1 (configuration not stated),5
2,O=C1NC(=O)c2ccccc21,5
3,CCOC(=O)C(=O)Nc1nc(-c2ccccc2)cs1,5
4,C=C(C)CC1CCCCCCCCCCC1=O (configuration not stated),5
5,CC1=NN(c2cccc(S(=O)(=O)O)c2)C(=O)C1/N=N/c1cc(Cl)c(C)cc1S(=O)(=O)O (configuration not stated),5
6,CC1OC(Cn2cncn2)(c2cc3ccccc3o2)OC1C (configuration not stated),4
7,O=C(c1ccc(Cl)cc1)n1ccnc1-c1ccccc1,4
8,C/C=C(\C)C(=O)O[C@H]1C[C@@H](OC(C)=O)[C@@]2(C(=O)OC)CO[C@H]3[C@@H](O)[C@@](C)([C@]45O[C@@]4(C)[C@H]4C[C@@H]5O[C@@H]5OC=C[C@@]54O)[C@H]4[C@]1(CO[C@]4(O)C(=O)OC)[C@@H]32,5
9,CO[C@@]1(NC(=O)CSC[C@@H](N)C(=O)O)C(=O)N2C(C(=O)O)=C(CSc3nnnn3C)CS[C@@H]21,5
10,Clc1ccc(C(c2ccccc2Cl)C(Cl)Cl)cc1 (configuration not stated),5
11,CC=CC(=O)OCCCCCC,5
12,CS(=O)(=O)c1ccc(C(=O)C2C(=O)CCCC2=O)c(Cl)c1COCC(F)(F)F,5
13,COCc1ccc(C=O)o1,5
14,C=CC=CC=CC=CC=CC=CC=CC,5
15,CNC(=O)c1sc(-c2ccccc2OC)nc1C,5
16,CCOC(=O)C(Br)CC (configuration not stated),4
17,Cc1ccc2c(c1)C(=O)C(C)C2 (configuration not stated),5
18,Cc1cc(O)c(C)c2c1OC(C)(CCCC(C)CCCC(C)CCCC(C)C)CC2 (racemic),5
19,O=C1Nc2ccccc2OC1(c1ccc(O)cc1)c1ccc(O)cc1,5
20,CCCCCCCCCCCCBr,5
21,C1C[C@@H]2[C@H]3CC[C@H](C3)[C@@H]2C1,5
22,COc1ccc2c(c1)CCN(c1ccccc1)C2c1ccc(OCCN2CCCC2)cc1 (configuration not stated),4
23,CCCCCCCCCCCCCC=O,5
